Results from US20250282771A1, “TETRAHYDROISOQUINOLINE HETEROBIFUNCTIONAL BCL-XL DEGRADERS” (Treeline Biosciences, Inc., priority 2022, published 2025).

Biological target: T1, N-terminal HiBiT tagged BCL-XL (Homo sapiens, UniProt Q07817)
T1 construct: expressed in transfected cells; host or cells: HT-1080 (ATCC CCL-121) cells stably transduced with lentivirus pLV-UBC-N-HiBiT-BCL-XL-PGK-puro
Assay: HiBiT based degradation assay
Format: cell-based
Conditions: HT1080 cells expressing N-terminal HiBiT tagged BCL-XL, BCL-XL level normalized with DMSO control
Source text: Human BCL-XL protein coding open reading frame fused with N-terminal HiBiT coding sequence was synthesized from Integrated DNA Technologies (IDT). Next, N-HiBiT-BCL-XL sequence was cloned into pLV-UBC-PGK-Puro, a lentivirus plasmid purchased from Vectorbuilder, to generate pLV-UBC-N-HiBiT-BCL-XL-PGK-puro. Lentiviral particles were generated from Lenti-X™ 293T cells (Clontech) by co-transfection of pLV-UBC-N-HiBiT-BCL-XL-PGK-puro plasmids and lentiviral packaging plasmid mix (Cellecta). HT-1080 [HT1080](ATCC CCL-121) cells were infected with the lentivirus, and HT1080 cells stably integrated with the lentiviral vectors were established by incubation with […] puromycin (Thermofisher).
HT1080 cells expressing N-terminal HiBiT tagged BCL-XL were dispensed into a 384-well plate pre-spotted with compounds at varying concentrations. Three thousand cells were seeded into each well in 40 μL of RPMI 1640 media. […] After incubation, luminescence was read on a PHERAstar FSX Plate Reader (BMG). BCL-XL degradation at each indicated concentration was normalized with the DMSO control. The BCL-XL degradation curves were plotted using a four-parameter logistic model. For compounds displaying hook effects, the curve fitting was performed using the bottom point of the hook curves (i.e., the point of Ymin) as the bottom plateau to calculate EC50.

T1 sequence (Q07817 whole entry): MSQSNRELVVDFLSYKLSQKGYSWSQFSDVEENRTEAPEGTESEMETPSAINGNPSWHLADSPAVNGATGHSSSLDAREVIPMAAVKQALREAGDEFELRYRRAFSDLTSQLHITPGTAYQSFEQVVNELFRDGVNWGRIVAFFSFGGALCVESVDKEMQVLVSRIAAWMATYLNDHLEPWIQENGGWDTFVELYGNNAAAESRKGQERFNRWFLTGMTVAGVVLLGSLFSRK

| Structure (SMILES) | Ymin (6 h) | Ymin (24 h) |
| --- | --- | --- |
| Cc1c(O[C@H]2CC[C@H](CCC(=O)N3CCN(c4cc5c(cc4F)C(=O)N(C4CCC(=O)NC4=O)C5=O)CC3)CC2)cccc1-c1ccc(N2CCc3cccc(C(=O)Nc4nc5ccccc5s4)c3C2)nc1C(=O)O (some centres unmarked) [Compound 111a, 6-(8-(benzo[d]thiazol-2-ylcarbamoyl)-3,4-dihydroisoquinolin-2(1H)-yl)-3-(3-(((1r,4r)-4-(3-(4-(2-(2,6-dioxopiperidin-3-yl)-6-fluoro-1,3-dioxoisoindolin-5-yl)piperazin-1-yl)-3-oxopropyl)cyclohexyl)oxy)-2-methylphenyl)picolinic acid] | B (50% ≤ Ymin < 70%) | B (50% ≤ Ymin < 70%) |
| Cc1c(OCCC2CCN(CC3CCN(c4cc5c(cc4F)C(=O)N(C4CCC(=O)NC4=O)C5=O)CC3)CC2)cccc1-c1ccc(N2CCc3cccc(C(=O)Nc4nc5ccccc5s4)c3C2)nc1C(=O)O (centres unmarked) [Compound 145, 6-[8-(1,3-benzothiazol-2-ylcarbamoyl)-3,4-dihydro-1H-isoquinolin-2-yl]-3-[3-[2-[1-[[1-[2-(2,6-dioxo-3-piperidyl)-6-fluoro-1,3-dioxo-isoindolin-5-yl]-4-piperidyl]methyl]-4-piperidyl]ethoxy]-2-methyl-phenyl]pyridine-2-carboxylic acid] | – | A (Ymin < 50%) |
| Cc1c(O[C@@H](C)CCC2CCN(CC(=O)N3CCN(c4cc5c(cc4F)C(=O)N(C4CCC(=O)NC4=O)C5=O)CC3)CC2)cccc1-c1ccc(N2CCc3cccc(C(=O)Nc4nc5ccccc5s4)c3C2)nc1C(=O)O (stereo partly drawn) [Compound 128a, 6-(8-(benzo[d]thiazol-2-ylcarbamoyl)-3,4-dihydroisoquinolin-2(1H)-yl)-3-(3-(((2S)-4-(1-(2-(4-(2-(2,6-dioxopiperidin-3-yl)-6-fluoro-1,3-dioxoisoindolin-5-yl)piperazin-1-yl)-2-oxoethyl)piperidin-4-yl)butan-2-yl)oxy)-2-methylphenyl)picolinic acid] | C (Ymin ≥ 70%) | B (50% ≤ Ymin < 70%) |
| Cc1c(OCCC[C@H]2CCN(CC(=O)N3CCN(c4cc5c(cc4F)C(=O)N(C4CCC(=O)NC4=O)C5=O)CC3)CC2(F)F)cccc1-c1ccc(N2CCc3cccc(C(=O)Nc4nc5ccccc5s4)c3C2)nc1C(=O)O (some centres unmarked) [Compound 120b] | – | C (Ymin ≥ 70%) |
| Cc1c(OCCCCCCCCCCCN2CCN(c3cc4c(cc3F)C(=O)N(C3CCC(=O)NC3=O)C4=O)CC2)cccc1-c1ccc(N2CCc3cccc(C(=O)Nc4nc5ccccc5s4)c3C2)nc1C(=O)O (centres unmarked) [Compound 107] | B (50% ≤ Ymin < 70%) | – |
| Cc1c(OCCCCCCCN2CCN(c3cc4c(cc3F)C(=O)N(C3CCC(=O)NC3=O)C4=O)CC2)cccc1-c1ccc(N2CCc3cccc(C(=O)Nc4nc5ccccc5s4)c3C2)nc1C(=O)NO (centres unmarked) [Compound 137, N-(benzo[d]thiazol-2-yl)-2-(5-(3-((7-(4-(2-(2,6-dioxopiperidin-3-yl)-6-fluoro-1,3-dioxoisoindolin-5-yl)piperazin-1-yl)heptyl)oxy)-2-methylphenyl)-6-(hydroxycarbamoyl)pyridin-2-yl)-1,2,3,4-tetrahydroisoquinoline-8-carboxamide] | C (Ymin ≥ 70%) | B (50% ≤ Ymin < 70%) |
| Cc1c(O[C@H]2CC[C@H](CCCCN3CCN(c4cc5c(cc4F)C(=O)N(C4CCC(=O)NC4=O)C5=O)CC3)CC2)cccc1-c1ccc(N2CCc3cccc(C(=O)Nc4nc5ccccc5s4)c3C2)nc1C(=O)O (some centres unmarked) [Compound 129a, 6-(8-(benzo[d]thiazol-2-ylcarbamoyl)-3,4-dihydroisoquinolin-2(1H)-yl)-3-(3-(((1s,4r)-4-(4-(4-(2-(2,6-dioxopiperidin-3-yl)-6-fluoro-1,3-dioxoisoindolin-5-yl)piperazin-1-yl)butyl)cyclohexyl)oxy)-2-methylphenyl)picolinic acid] | – | B (50% ≤ Ymin < 70%) |
| Cc1c(OCCC[C@@H]2CCN(CC(=O)N3CCN(c4cc5c(cc4F)C(=O)N(C4CCC(=O)NC4=O)C5=O)CC3)CC2(F)F)cccc1-c1ccc(N2CCc3cccc(C(=O)Nc4nc5ccccc5s4)c3C2)nc1C(=O)O (stereo partly drawn) [Compound 120a, 6-(8-(benzo[d]thiazol-2-ylcarbamoyl)-3,4-dihydroisoquinolin-2(1H)-yl)-3-(3-(3-((4R)-1-(2-(4-(2-(2,6-dioxopiperidin-3-yl)-6-fluoro-1,3-dioxoisoindolin-5-yl)piperazin-1-yl)-2-oxoethyl)-3,3-difluoropiperidin-4-yl)propoxy)-2-methylphenyl)picolinic acid] | – | B (50% ≤ Ymin < 70%) |
| Cc1c(OCCC[C@H]2CCN(CC(=O)N3CCN(c4cc5c(cc4F)C(=O)N(C4CCC(=O)NC4=O)C5=O)CC3)C2)cccc1-c1ccc(N2CCc3cccc(C(=O)Nc4nc5ccccc5s4)c3C2)nc1C(=O)O (stereo partly drawn) [Compound 122a, 6-(8-(benzo[d]thiazol-2-ylcarbamoyl)-3,4-dihydroisoquinolin-2(1H)-yl)-3-(3-(3-((3S)-1-(2-(4-(2-(2,6-dioxopiperidin-3-yl)-6-fluoro-1,3-dioxoisoindolin-5-yl)piperazin-1-yl)-2-oxoethyl)pyrrolidin-3-yl)propoxy)-2-methylphenyl)picolinic acid] | – | B (50% ≤ Ymin < 70%) |
| Cc1c(OCCCCCCCCCN2CCN(c3cc4c(cc3F)C(=O)N(C3CCC(=O)NC3=O)C4=O)CC2)cccc1-c1ccc(N2CCc3cccc(C(=O)Nc4nc5ccccc5s4)c3C2)nc1C(=O)O (centres unmarked) [Compound 105] | A (Ymin < 50%) | – |
| Cc1c(OCC[C@H](C)C2CCN(CC(=O)N3CCN(c4cc5c(cc4F)C(=O)N(C4CCC(=O)NC4=O)C5=O)CC3)CC2)cccc1-c1ccc(N2CCc3cccc(C(=O)Nc4nc5ccccc5s4)c3C2)nc1C(=O)O (stereo partly drawn) [Compound 130a, 6-[8-(1,3-benzothiazol-2-ylcarbamoyl)-3,4-dihydro-1H-isoquinolin-2-yl-3-[3-[(3S)-3-1-[2-[4-[2-(2,6-dioxo-3-piperidyl)-6-fluoro-1,3-dioxo-isoindolin-5-yl]piperazin-1-yl]-2-oxo-ethyl]-4-piperidyl]butoxy]-2-methyl-phenyl]pyridine-2-carboxylic acid] | – | B (50% ≤ Ymin < 70%) |
| Cc1c(OCCCCCCCCC(=O)N2CCN(c3cc4c(cc3F)C(=O)N(C3CCC(=O)NC3=O)C4=O)CC2)cccc1-c1ccc(N2CCc3cccc(C(=O)Nc4nc5ccccc5s4)c3C2)nc1C(=O)O (centres unmarked) [Compound 109] | B (50% ≤ Ymin < 70%) | – |
| Cc1c(OCC2CC3(CCN(CC(=O)N4CCN(c5cc6c(cc5F)C(=O)N(C5CCC(=O)NC5=O)C6=O)CC4)CC3)C2)cccc1-c1ccc(N2CCc3cccc(C(=O)Nc4nc5ccccc5s4)c3C2)nc1C(=O)O (centres unmarked) [Compound 113, 6-[8-(1,3-benzothiazol-2-ylcarbamoyl)-3,4-dihydro-1H-isoquinolin-2-yl]-3-[3-[[7-[2-[4-[2-(2,6-dioxo-3-piperidyl)-6-fluoro-1,3-dioxo-isoindolin-5-yl]piperazin-1-yl]-2-oxo-ethyl]-7-azaspiro[3.5]nonan-2-yl]methoxy]-2-methyl-phenyl]pyridine-2-carboxylic acid] | B (50% ≤ Ymin < 70%) | B (50% ≤ Ymin < 70%) |
| Cc1cc(OCCCC2CCN(CC(=O)N3CCN(c4cc5c(cc4F)C(=O)N(C4CCC(=O)NC4=O)C5=O)CC3)CC2)ccc1-c1ccc(N2CCc3cccc(C(=O)Nc4nc5ccccc5s4)c3C2)nc1C(=O)O (centres unmarked) [Compound 138] | C (Ymin ≥ 70%) | B (50% ≤ Ymin < 70%) |
| Cc1c(OCCCC[C@@H]2CCCN(CC(=O)N3CCN(c4cc5c(cc4F)C(=O)N(C4CCC(=O)NC4=O)C5=O)CC3)C2)cccc1-c1ccc(N2CCc3cccc(C(=O)Nc4nc5ccccc5s4)c3C2)nc1C(=O)O (stereo partly drawn) [Compound 135a, 6-[8-(1,3-benzothiazol-2-ylcarbamoyl)-3,4-dihydro-1H-isoquinolin-2-yl]-3-[3-[4-[(3R)-1-[2-[4-[2-(2,6-dioxo-3-piperidyl)-6-fluoro-1,3-dioxo-isoindolin-5-yl]piperazin-1-yl]-2-oxo-ethyl]-3-piperidyl]butoxy]-2-methyl-phenyl]pyridine-2-carboxylic acid] | – | B (50% ≤ Ymin < 70%) |
| Cc1c(OCCCCC2CCN(CC3CCN(c4cc5c(cc4F)C(=O)N(C4CCC(=O)NC4=O)C5=O)CC3)CC2)cccc1-c1ccc(N2CCc3cccc(C(=O)Nc4nc5ccccc5s4)c3C2)nc1C(=O)O (centres unmarked) [Compound 144, 6-[8-(1,3-benzothiazol-2-ylcarbamoyl)-3,4-dihydro-1H-isoquinolin-2-yl]-3-[3-[4-[1-[[1-[2-(2,6-dioxo-3-piperidyl)-6-fluoro-1,3-dioxo-isoindolin-5-yl]-4-piperidyl]methyl]-4-piperidyl]butoxy]-2-methyl-phenyl]pyridine-2-carboxylic acid] | – | A (Ymin < 50%) |
| O=C1CCC(N2C(=O)c3cc(F)c(N4CCN(CCCCCCCOc5cccc(-c6ccc(N7CCc8cccc(C(=O)Nc9nc%10ccccc%10s9)c8C7)nc6C(=O)O)c5)CC4)cc3C2=O)C(=O)N1 (centres unmarked) [Compound 103] | B (50% ≤ Ymin < 70%) | – |
| Cc1c(OCC[C@@H](C)C2CCN(CC(=O)N3CCN(c4cc5c(cc4F)C(=O)N(C4CCC(=O)NC4=O)C5=O)CC3)CC2)cccc1-c1ccc(N2CCc3cccc(C(=O)Nc4nc5ccccc5s4)c3C2)nc1C(=O)O (some centres unmarked) [Compound 130b] | – | C (Ymin ≥ 70%) |
